Usually IC50 stands for the point on the concentration scale where inhibition reaches its midpoint. A low value points to greater potency in that assay.

Structures can show the parent of a compound that is named as a salt.

Among the data in US20070049593A1 (priority 2004, published 2007) are IC50 values, retold here.

For this experiment, the target named is T1, HCV polymerase (Hepatitis C virus genotype 1b, UniProt P26663).
T1 construct: a region encoding NS5B (J Virol 1991 March, 65(3), 1105-13, 544 amino acids after deletion of 47 amino acids on the C-terminal); 6xHis (C); made in house; host or cells: Escherichia coli
T1 sequence (P26663 2420-2963): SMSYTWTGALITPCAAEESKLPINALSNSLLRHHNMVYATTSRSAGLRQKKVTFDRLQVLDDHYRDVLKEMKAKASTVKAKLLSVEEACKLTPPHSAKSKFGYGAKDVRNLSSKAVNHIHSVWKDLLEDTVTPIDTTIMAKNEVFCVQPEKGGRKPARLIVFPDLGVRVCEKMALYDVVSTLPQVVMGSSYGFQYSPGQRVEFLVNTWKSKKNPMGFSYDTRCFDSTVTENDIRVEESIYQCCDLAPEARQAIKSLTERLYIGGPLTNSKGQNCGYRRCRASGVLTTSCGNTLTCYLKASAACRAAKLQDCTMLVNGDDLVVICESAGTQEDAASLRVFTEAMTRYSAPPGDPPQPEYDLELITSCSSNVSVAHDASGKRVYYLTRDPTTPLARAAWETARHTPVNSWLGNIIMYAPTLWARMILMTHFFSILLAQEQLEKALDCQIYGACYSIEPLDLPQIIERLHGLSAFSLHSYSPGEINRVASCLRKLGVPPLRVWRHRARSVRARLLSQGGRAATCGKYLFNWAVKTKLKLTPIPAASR
As to the kind of experiment: biochemical. Further details: species or system HCV BK strain. An outline of the steps: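 Recombinant HCV BK-strain NS5B (C-terminal 47 aa deleted, His6-tagged, E. coli), 0.5 μg/ml, run with 5 μg/ml in vitro-transcribed RNA template (polyU/3′X), ATP/GTP/CTP 50 μM, UTP 2 μM plus [3H]UTP, pH 7.5, 25° C, 90 min. TCA-precipitated RNA counted by scintillation; IC50 from activity with vs without compound.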

As for `CCOC1CCCN(CCN2CCn3c(c(C4CCCCC4)c4ccc(C(=O)O)cc43)-c3ccccc32)C1` (stereo not shown) [Example 1-324, 13-cyclohexyl-5-[2-(3-ethoxypiperidin-1-yl)ethyl]-6,7-dihydro-5H-benzo[5,6][1,4]diazepino[7,1-a]indole-10-carboxylic acid monohydrochloride], the IC50 is < 100 nM. The figure for `Cc1ccc2c(c1)N(CCc1nc(C)cs1)CCn1c-2c(C2CCCCC2)c2ccc(C(=O)O)cc21` [Example 1-588, 13-cyclohexyl-3-methyl-5-[2-(4-methylthiazol-2-yl)ethyl]-6,7-dihydro-5H-benzo[5,6][1,4]diazepino[7,1-a]indole-10-carboxylic acid] is < 100 nM; for `COCC1CCCCN1CCN1CCn2c(c(C3CCCCC3)c3ccc(C(=O)O)cc32)-c2ccccc21` (stereo not shown) [Example 1-271, 13-cyclohexyl-5-[2-(2-methoxymethylpiperidin-1-yl)ethyl]-6,7-dihydro-5H-benzo[5,6][1,4]diazepino[7,1-a]indole-10-carboxylic acid dihydrochloride] it is < 100 nM. On to `COC[C@H]1CCCN1CCN1CCn2c(c(C3CCCCC3)c3ccc(C(=O)O)cc32)-c2ccccc21` [Example 1-316, 13-cyclohexyl-5-[2-((R)-2-methoxymethylpyrrolidin-1-yl)ethyl]-6,7-dihydro-5H-benzo[5,6][1,4]diazepino[7,1-a]indole-10-carboxylic acid dihydrochloride], for which the IC50 was < 100 nM. As for `COC[C@H](Cc1ccc(O)cc1)NC(=O)c1ccc2c(C3CCCCC3)c3n(c2c1)CCOc1cc(OC)ccc1-3` [Example 2-314, N—[(S)-1-(4-hydroxybenzyl)-2-methoxyethyl]-12-cyclohexyl-3-methoxy-6,7-dihydro-5-oxa-7a-azadibenzo[a,e]azulene-9-carboxamide], the half-maximal inhibitory concentration (IC50) is < 100 nM.

For `COC1CCN(C(=O)CN2CCn3c(c(C4CCCCC4)c4ccc(C(=O)O)cc43)-c3ccc(C)cc32)CC1` [Example 1-572, 13-cyclohexyl-5-[2-(4-methoxypiperidin-1-yl)-2-oxoethyl]-3-methyl-6,7-dihydro-5H-benzo[5,6][1,4]diazepino[7,1-a]indole-10-carboxylic acid], the IC50 was < 100 nM. The figure for `COc1ccc2c(c1)OCCn1c-2c(C2CCCCC2)c2ccc(C(=O)N[C@@H](Cc3ccc(O)cc3)c3nnnn3C)cc21` [Example 2-454, N—[(S)-2-(4-hydroxyphenyl)-1-(1-methyl-1H-tetrazol-5-yl)ethyl]-12-cyclohexyl-3-methoxy-6,7-dihydro-5-oxa-7a-azadibenzo[a,e]azulene-9-carboxamide] is < 100 nM.

Regarding `COc1ccc2c(c1)OCCn1c-2c(C2CCCCC2)c2ccc(C(=O)NC3(C(=O)Nc4cccc(/C=C/C(=O)O)c4)CCC3)cc21` [Example 2-550, (E)-3-[3-({1-[(12-cyclohexyl-3-methoxy-6,7-dihydro-5-oxa-7a-azadibenzo[a,e]azulene-9-carbonyl)amino]cyclobutanecarbonyl}amino)phenyl]acrylic acid], the IC50 was < 100 nM.

For `O=C(O)c1ccc2c(C3CCCCC3)c3n(c2c1)CCN(CC[C@@H]1CCCN(C2CCCC2)C1)c1cc(Cl)ccc1-3` [Example 1-404, 3-chloro-13-cyclohexyl-5-[2-((S)-1-cyclopentylpiperidin-3-yl)ethyl]-6,7-dihydro-5H-benzo[5,6][1,4]diazepino[7,1-a]indole-10-carboxylic acid dihydrochloride], the IC50 was < 100 nM. Regarding `COc1ccc2c(c1)OCCn1c-2c(C2CCCCC2)c2ccc(C(=O)N[C@@H](Cc3ccc(O)cc3)C3=NCCN3)cc21` [Example 2-450, N—[(S)-1-(4,5-dihydro-1H-imidazol-2-yl)-2-(4-hydroxyphenyl)ethyl]-12-cyclohexyl-3-methoxy-6,7-dihydro-5-oxa-7a-azadibenzo[a,e]azulene-9-carboxamide], the IC50 was < 100 nM. As for `O=C(O)c1ccc2c(C3CCCCC3)c3n(c2c1)CCN(CC(=O)N1CCS(=O)(=O)CC1)c1ccccc1-3` [Example 1-45, 13-cyclohexyl-5-[2-(1,1-dioxothiomorpholin-4-yl)-2-oxoethyl]-6,7-dihydro-5H-benzo[5,6][1,4]diazepino[7,1-a]indole-10-carboxylic acid monohydrochloride], the 50% inhibitory concentration (IC50) is < 100 nM.

On to `CC(C)(NC(=O)c1ccc2c(C3CCCCC3)c3n(c2c1)CCOc1ccccc1-3)c1ccc(OCC(=O)O)cc1` [Example 2-241, (4-{1-[(12-cyclohexyl-6,7-dihydro-5-oxa-7a-azadibenzo[a,e]azulene-9-carbonyl)amino]-1-methylethyl}phenoxy)acetic acid], for which the concentration for half-maximal inhibition (IC50) is < 100 nM. The same measure for `CCN1CCN(C(=O)CN2CCn3c(c(C4CCCCC4)c4ccc(C(=O)NC(C)=O)cc43)-c3ccccc32)CC1` [Example 1-102, N-acetyl-13-cyclohexyl-5-[2-(4-ethylpiperazin-1-yl)-2-oxoethyl]-6,7-dihydro-5H-benzo[5,6][1,4]diazepino[7,1-a]indole-10-carboxamide]: < 100 nM; for `COC[C@@H]1CCCN(CCN2CCn3c(c(C4CCCCC4)c4ccc(C(=O)O)cc43)-c3ccc(OC)cc32)C1` [Example 1-508, 13-cyclohexyl-3-methoxy-5-[2-((R)-3-methoxymethylpiperidin-1-yl)ethyl]-6,7-dihydro-5H-benzo[5,6][1,4]diazepino[7,1-a]indole-10-carboxylic acid dihydrochloride]: < 100 nM; for `COC(=O)C(Cc1cccc(O)c1)NC(=O)c1ccc2c(C3CCCCC3)c3n(c2c1)CCOc1cc(OC)ccc1-3` (stereo not shown) [Example 2-353, methyl 2-[(12-cyclohexyl-3-methoxy-6,7-dihydro-5-oxa-7a-azadibenzo[a,e]azulene-9-carbonyl)amino]-3-(3-hydroxyphenyl)propionate]: < 100 nM. The same measure for `COC(=O)c1ccc2nc(C3(NC(=O)c4ccc5c(C6CCCCC6)c6n(c5c4)CCOc4ccccc4-6)CCN(C)CC3)[nH]c2c1` [Example 2-313, methyl 2-{4-[(12-cyclohexyl-6,7-dihydro-5-oxa-7a-azadibenzo[a,e]azulene-9-carbonyl)amino]-1-methylpiperidin-4-yl]-3H-benzimidazole-5-carboxylate]: < 100 nM. For `COC(=O)C(N)Cc1ccc(C(C)(C)NC(=O)c2ccc3c(C4CCCCC4)c4n(c3c2)CCOc2cc(OC)ccc2-4)cc1` (stereo not shown) [Example 2-442, methyl 2-amino-3-(4-{1-[(12-cyclohexyl-3-methoxy-6,7-dihydro-5-oxa-7a-azadibenzo[a,e]azulene-9-carbonyl)amino]-1-methylethyl}phenyl)propionate monohydrochloride], the 50% inhibitory concentration (IC50) was < 100 nM. For `CC(C)N1CCC(CCN2CCn3c(c(C4CCCCC4)c4ccc(C(=O)O)cc43)-c3ccc(Cl)cc32)CC1` [Example 1-240, 3-chloro-13-cyclohexyl-5-[2-(1-isopropylpiperidin-4-yl)ethyl]-6,7-dihydro-5H-benzo[5,6][1,4]diazepino[7,1-a]indole-10-carboxylic acid dihydrochloride], the half-inhibitory concentration (IC50) is < 100 nM. For the compound `O=C(O)c1ccc2c(C3CCCCC3)c3n(c2c1)CCN(CCN1CCN(c2ccccc2)CC1)c1ccccc1-3` [Example 1-82, 13-cyclohexyl-5-[2-(4-phenylpiperazin-1-yl)ethyl]-6,7-dihydro-5H-benzo[5,6][1,4]diazepino[7,1-a]indole-10-carboxylic acid trihydrochloride], the concentration for half-maximal inhibition (IC50) was < 100 nM. The same measure for `CCN1CCN(C(=O)CN2CCn3c(c(C4CCCCC4)c4ccc(C(=O)O)cc43)-c3ccc(C)cc32)CC1` [Example 1-117, 13-cyclohexyl-5-[2-(4-ethylpiperazin-1-yl)-2-oxoethyl]-3-methyl-6,7-dihydro-5H-benzo[5,6][1,4]diazepino[7,1-a]indole-10-carboxylic acid dihydrochloride]: < 100 nM. Compound `O=C(O)c1ccc2c(c1)c1c(n2C2CCCCC2)-c2ccccc2N(CCN2CCCCC2)CC1` [Example 10-4, 12-cyclohexyl-5-[2-(piperidin-1-yl)ethyl]-5,6,7,12-tetrahydrobenzo[2,3]azepino[4,5-b]indole-9-carboxylic acid] gave an IC50 of 100 to 1000 nM. On to `Cc1ccc2c(c1)N(CC(=O)N1CCOCC1)CCn1c-2c(C2CCCCC2)c2ccc(C(=O)O)cc21` [Example 1-63, 13-cyclohexyl-3-methyl-5-[2-(morpholin-4-yl)-2-oxoethyl]-6,7-dihydro-5H-benzo[5,6][1,4]diazepino[7,1-a]indole-10-carboxylic acid monohydrochloride], for which the IC50 is < 100 nM. The same measure for `COc1ccc2c(c1)OCCn1c-2c(C2CCCCC2)c2ccc(C(=O)NC(C)(C)c3nc4ccc(C(=O)O)cc4[nH]3)cc21` [Example 2-332, 2-{1-[(12-cyclohexyl-3-methoxy-6,7-dihydro-5-oxa-7a-azadibenzo[a,e]azulene-9-carbonyl)amino]-1-methylethyl}-3H-benzimidazole-5-carboxylic acid]: < 100 nM; for `O=C(O)CN1CCC(CO)(NC(=O)c2ccc3c(C4CCCCC4)c4n(c3c2)CCOc2ccccc2-4)CC1` [Example 2-287, {4-[(12-cyclohexyl-6,7-dihydro-5-oxa-7a-azadibenzo[a,e]azulene-9-carbonyl)amino]-4-hydroxymethylpiperidin-1-yl}acetic acid monohydrochloride]: 100 to 1000 nM; for `CC1(C)CCN(CCN2CCn3c(c(C4CCCCC4)c4ccc(C(=O)O)cc43)-c3ccccc32)CC1` [Example 1-199, 13-cyclohexyl-5-[2-(4,4-dimethylpiperidin-1-yl)ethyl]-6,7-dihydro-5H-benzo[5,6][1,4]diazepino[7,1-a]indole-10-carboxylic acid dihydrochloride]: < 100 nM.
